Data taken from patent US6056958A, “Method of treatment of arterial and venous thromboembolic disorders” (Dupont Pharmaceuticals, priority 1997, dated 2000).
Non-standard residues stand in square brackets, D forms with d. Residues, ends and D or L forms follow the SMILES beside them. 3Amb = NCc1cccc(C(=O)O)c1

Key:
αv /β3 receptor = biological target: T1, αv /β3 receptor (Homo sapiens, UniProt P05106+P06756); test: αv/β3-Biotinylated Vitronectin Binding Assay; conditions: for IC50: inhibition of vitronectin binding to purified αv/β3; for Relative Binding Affinity for αv /β3 Relative to GPIIb/IIIa: ratio of IC50 values (GPIIb/IIIa over αv/β3)
T1 construct: The αv /β3 receptor was isolated from human placental extracts prepared using octylglucoside; from tissue
T1 sequence (P06756 31-889 limits assumed): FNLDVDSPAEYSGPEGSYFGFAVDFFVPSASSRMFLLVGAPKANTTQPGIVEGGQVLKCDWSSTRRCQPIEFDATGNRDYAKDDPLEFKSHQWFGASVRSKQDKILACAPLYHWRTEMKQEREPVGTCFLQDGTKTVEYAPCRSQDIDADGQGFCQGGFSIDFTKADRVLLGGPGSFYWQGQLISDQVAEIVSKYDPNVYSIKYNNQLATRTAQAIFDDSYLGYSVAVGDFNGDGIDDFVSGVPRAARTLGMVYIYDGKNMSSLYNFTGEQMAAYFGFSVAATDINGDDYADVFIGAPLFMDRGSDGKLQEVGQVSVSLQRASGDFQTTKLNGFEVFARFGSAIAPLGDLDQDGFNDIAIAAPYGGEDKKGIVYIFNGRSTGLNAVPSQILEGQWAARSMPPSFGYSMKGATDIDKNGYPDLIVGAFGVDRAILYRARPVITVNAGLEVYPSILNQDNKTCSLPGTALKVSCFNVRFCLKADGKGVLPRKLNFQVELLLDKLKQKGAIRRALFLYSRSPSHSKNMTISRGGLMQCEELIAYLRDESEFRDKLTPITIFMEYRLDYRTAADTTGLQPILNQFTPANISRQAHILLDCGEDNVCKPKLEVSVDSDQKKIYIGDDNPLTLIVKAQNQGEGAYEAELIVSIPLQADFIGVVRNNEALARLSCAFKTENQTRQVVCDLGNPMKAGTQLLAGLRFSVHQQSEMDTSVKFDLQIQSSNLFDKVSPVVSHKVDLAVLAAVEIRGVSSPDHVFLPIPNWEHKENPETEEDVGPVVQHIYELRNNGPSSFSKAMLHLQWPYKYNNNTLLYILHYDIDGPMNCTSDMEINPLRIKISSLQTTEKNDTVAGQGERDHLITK
T1 sequence (P06756 891-1048 partner limits assumed): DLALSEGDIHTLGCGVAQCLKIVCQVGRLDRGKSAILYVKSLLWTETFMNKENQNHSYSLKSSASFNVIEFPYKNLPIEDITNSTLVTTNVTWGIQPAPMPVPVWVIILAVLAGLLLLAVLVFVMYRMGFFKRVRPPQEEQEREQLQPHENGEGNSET
T1 sequence (P05106 27-788): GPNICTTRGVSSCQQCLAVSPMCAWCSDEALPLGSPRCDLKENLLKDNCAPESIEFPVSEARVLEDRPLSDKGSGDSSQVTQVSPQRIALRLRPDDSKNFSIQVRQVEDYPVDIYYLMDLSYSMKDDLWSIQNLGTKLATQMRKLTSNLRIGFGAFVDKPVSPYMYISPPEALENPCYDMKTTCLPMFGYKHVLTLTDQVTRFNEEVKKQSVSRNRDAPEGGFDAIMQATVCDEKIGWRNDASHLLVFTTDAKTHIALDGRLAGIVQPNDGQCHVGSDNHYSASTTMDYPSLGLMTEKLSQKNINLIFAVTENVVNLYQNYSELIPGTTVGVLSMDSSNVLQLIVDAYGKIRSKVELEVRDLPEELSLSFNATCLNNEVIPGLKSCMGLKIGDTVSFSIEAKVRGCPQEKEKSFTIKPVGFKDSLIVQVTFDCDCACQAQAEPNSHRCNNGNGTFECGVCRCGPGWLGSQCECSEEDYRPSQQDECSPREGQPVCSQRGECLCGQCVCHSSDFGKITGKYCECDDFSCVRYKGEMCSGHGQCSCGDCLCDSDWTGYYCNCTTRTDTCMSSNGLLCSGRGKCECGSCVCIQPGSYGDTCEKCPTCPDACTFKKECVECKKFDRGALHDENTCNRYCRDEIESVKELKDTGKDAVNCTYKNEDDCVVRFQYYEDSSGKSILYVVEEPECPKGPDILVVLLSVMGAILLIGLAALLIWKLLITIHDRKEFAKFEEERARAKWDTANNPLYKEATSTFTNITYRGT
Source text: (§1) Compounds may be tested for their ability to block binding of vitronectin to the αv /β3 receptor and to block the binding of fibrinogen to GPIIb/IIIa receptor in the αv /β3 -Biotinylated Vitronectin Binding Assay and GPIIb/IIIa Receptor-Biotinylated Fibrinogen Binding Assay described below.
αv /β3 -Biotinylated Vitronectin Binding Assay
The αv /β3 receptor was isolated from human placental extracts prepared using octylglucoside. The extract was passed over an anti-αv /β3 monoclonal antibody (LM609) affinity column (prepared using LM609 and Affigel 10). The column was subsequently washed extensively at pH 7 and pH 4.5 followed by elution at pH 3. The resulting sample was concentrated by wheat germ agglutinin chromatography to provide a αv /β3 -containing sample which gave two bands on SDS-PAGE which were confirmed as αv /β3 by western blotting.
The affinity purified αv /β3 protein as described above was diluted at different levels and plated to 96 well plates (about 15 ng of αv /β3 protein per well). ELISA detection of αv /β3 -bound biotinylated vitronectin was performed as described below using fixed concentration of biotinylated vitronectin (approximately 80 nM/well). This αv /β3 receptor preparation contains the αv /β3 with no detectable levels of αv /β5 according to the gel and according to effects of blocking antibodies for the αv /β3 or αv /β5 in the ELISA.
A submaximal concentration of biotinylated vitronectin was selected based on concentration response curves with fixed αv /β3 receptor concentration and variable concentrations of biotinylated vitronectin.
The purified αv /β3 receptor is diluted with coating buffer (20 mM Tris HCl, 150 mM NaCl, 2.0 mM CaCl2, 1.0 mM MgCl2.6H2 O, 1.0 mM MnCl2.4H2 O) and coated (100 μL/well) on Costar (3590) high capacity 96-well plates overnight at 4° C. The coating solution is discarded and the plates washed once with blocking/binding buffer (B/B buffer: 50 mM Tris HCl, 100 mM NaCl, 2.0 mM CaCl2, 1.0 mM MgCl2.6H2 O, 1.0 mM MnCl2.4H2 O). The plate-immobilized αv /β3 receptor is then blocked (200 μl/well) with 3.5% BSA in B/B buffer for 2 hours at room temperature. After washing once with 1.0% BSA in B/B buffer, biotinylated vitronectin (100 μL) and either test compound (inhibitor) (11 μL) or B/B buffer w/1.0% BSA (11 μL) is added to each well. The plates are incubated 2 hours at room temperature. The plates are washed twice with B/B buffer and incubated 1 hour at room temperature with anti-biotin alkaline phosphatase (100 μL/well) in B/B buffer containing 1.0% BSA. The plates are washed twice with B/B buffer and alkaline phosphatase substrate (100 μL) is added. Color is developed at room temperature. Color development is stopped by addition of 2N NaOH (25 μL/well) and absorbance is read at 405 nm.
The inhibitory binding constant (Ki) of test agents 30 may be calculated under this assay system using Michaelis-Menten analysis. The IC50 is the concentration of test substance needed to block 50% of the vitronectin binding to the αv /β3 receptor. The IC50 for the inhibition of binding of vitronectin to the αv /β3 receptor was determined based on time averaged values for the inhibition of vitronectin binding. Thus, the inhibition of vitronectin binding for each concentration of test compound was measured every 30 seconds over a 2 hour period and the average value of inhibition of vitronectin binding over such 2 hour period was used for the determination of the IC50.

Platelet Aggregation = Platelet Aggregation Assay (in vitro, ADP-induced, platelet-rich plasma); assay type: cell-based, mongrel dogs or human
Description: Platelet Aggregation Assay
Venous blood was obtained from anesthetized mongrel dogs or from healthy human donors who were drug-free and aspirin-free for at least two weeks prior to blood collection. Blood was collected into citrated Vacutainer tubes. The blood was centrifuged for 15 minutes at 150× g (850 RPM in a Sorvall RT6000 Tabletop Centrifuge with H-1000 B rotor) at room temperature, and platelet-rich plasma (PRP) was removed. The remaining blood was centrifuged for 15 minutes at 1500× g ([…]) at room temperature, and platelet-poor plasma (PPP) was removed. Samples were assayed on an aggregometer (PAP-4 Platelet Aggregation Profiler), using PPP as the blank (100% transmittance). 200 μL of PRP (5×10^8 platelets/mL) were added to each micro test tube, and transmittance was set to 0%. 20 μl of ADP (10 μM) was added to each tube, and the aggregation profiles were plotted (% transmittance versus time). Test agent (20 μL) was added at different concentrations prior to the addition of the platelet agonist. Results are expressed as % inhibition of agonist-induced platelet aggregation.

GPIIb/IIIa receptor = biological target: T2, GPIIb/IIIa receptor (Homo sapiens, UniProt P05106+P08514); test: GPIIb/IIIa Receptor-Biotinylated Fibrinogen Binding Assay; conditions: inhibition of fibrinogen binding to purified GPIIb/IIIa
T2 construct: The GPIIb/IIIa receptor was purified from human platelets; from tissue; host or cells: human platelets (purified according to D'Souza et al., J. Biol. Chem. 1990, 265:3440-3446)
T2 sequence (P08514 32-887 limits assumed): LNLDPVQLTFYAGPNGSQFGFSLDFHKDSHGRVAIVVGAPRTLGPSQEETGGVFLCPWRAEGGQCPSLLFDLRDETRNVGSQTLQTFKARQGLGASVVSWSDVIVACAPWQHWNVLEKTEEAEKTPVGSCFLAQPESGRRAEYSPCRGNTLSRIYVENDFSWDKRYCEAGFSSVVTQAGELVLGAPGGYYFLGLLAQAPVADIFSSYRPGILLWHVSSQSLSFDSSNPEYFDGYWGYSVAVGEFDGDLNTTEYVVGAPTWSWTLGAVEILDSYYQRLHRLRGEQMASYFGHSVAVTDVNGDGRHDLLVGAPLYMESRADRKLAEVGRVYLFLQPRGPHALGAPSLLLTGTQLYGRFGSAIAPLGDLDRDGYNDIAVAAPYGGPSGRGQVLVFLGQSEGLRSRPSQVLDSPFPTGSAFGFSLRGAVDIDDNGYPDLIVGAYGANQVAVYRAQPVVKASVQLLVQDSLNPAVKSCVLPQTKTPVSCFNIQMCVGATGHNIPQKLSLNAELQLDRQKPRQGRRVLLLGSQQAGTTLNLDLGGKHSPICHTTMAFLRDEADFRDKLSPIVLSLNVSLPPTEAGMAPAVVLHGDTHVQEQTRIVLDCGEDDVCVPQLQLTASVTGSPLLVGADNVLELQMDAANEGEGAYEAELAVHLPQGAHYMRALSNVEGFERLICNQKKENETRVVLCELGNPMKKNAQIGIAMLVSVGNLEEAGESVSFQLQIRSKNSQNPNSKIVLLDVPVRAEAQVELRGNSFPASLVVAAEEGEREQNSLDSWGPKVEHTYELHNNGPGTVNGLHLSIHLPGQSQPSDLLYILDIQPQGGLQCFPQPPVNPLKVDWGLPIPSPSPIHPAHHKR
T2 sequence (P08514 891-1039 partner limits assumed): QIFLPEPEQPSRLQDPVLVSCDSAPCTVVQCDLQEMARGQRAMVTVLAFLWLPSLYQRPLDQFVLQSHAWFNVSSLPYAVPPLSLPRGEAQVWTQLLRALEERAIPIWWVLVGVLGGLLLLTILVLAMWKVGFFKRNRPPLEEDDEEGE
T2 sequence (P05106 27-788): as the sequence (P05106 27-788) above
Source text: as §1
GPIIb/IIIa Receptor-Biotinylated Fibrinogen Binding Assay
The GPIIb/IIIa receptor was purified from human platelets according to D'Souza et al. (J. Biol. Chem., 1990, 265:3440-3446). The purified GPIIb/IIIa protein was coated on 96 well plates and the competition between test compound and biotinylated fibrinogen for binding to the plate-immobilized GPIIb/IIIa receptor was determined by ELISA as described below. Bound fibrinogen was detected using an avidin-alkaline phosphatase conjugate and paranitrophenol detection at […]. For IC50 determination, test agent was added at various concentrations to plates coated with purified GPIIb/IIIa protein which was followed by the addition of biotinylated fibrinogen. The inhibitory binding constant (Ki) of test agents were calculated under this assay system using standard Michaelis-Menten analysis. The IC50 is the concentration of test substance needed to block 50% of the fibrinogen binding to the GPIIb/IIIa receptor.
The following reagents may be used in the GPIIb/IIIa-fibrinogen binding ELISA:
purified GPIIb/IIIa (148.8 μg/mL);
biotinylated fibrinogen (~1 mg/mL or 3000 nM);
anti-biotin alkaline phosphatase conjugate (Sigma no. A7418);
flat-bottom, high binding, 96-well plates (Costar Cat. no. 3590);
phosphatase substrate (Sigma 104) (40 mg capsules);
bovine serum albumin (BSA) (Sigma no. A3294);
Alkaline Phosphatase buffer--0.1 M glycine-HCl, 1 mM MgCl2.6H2 O, 1 mM ZnCl2, pH 10.4;
Binding buffer--20 mM Tris-HCl, 150 mM NaCl, 1 mM CaCl2.2H2 O, 0.02% NaN3, pH 7.0;
Buffer A--50 mM Tris-HCl, 100 mM NaCl, 2 mM CaCl2.2H2 O, 0.02% NaN3, pH 7.4;
Buffer A+3.5% BSA (Blocking buffer);
Buffer A+0.1% BSA (Dilution buffer);
The following method steps are used in the GPIIb/IIIa-fibrinogen binding ELISA:
Coat plates with GPIIb/IIIa in Binding buffer (125 ng/100 μL/well) overnight at 4° C. (Leave first column uncoated for non-specific binding). Cover and freeze plates at -70° C. until used. Thaw plate 1 hour at room temperature or overnight at 4° C. Discard coating solution and wash once with 200 μL Binding buffer per well. Block plate 2 hours at room temperature on shaker with 200 μl Buffer A+3.5% BSA (Blocking buffer) per well. Discard Blocking buffer and wash once with 200 μL Buffer A+0.1% BSA (Dilution buffer) per well. Pipet 11 μL of test compound (10× the concentration to be tested in Dilution buffer) into duplicate wells. […] Read plate at 405 nm. Blank against non-specific binding (NSB) well. % Inhibition is calculated as 100-(Test Compound Abs/Total Abs)×100.

[1] = tested on: canine thrombosis model (carotid artery); test: Carotid artery reocclusion in canine thrombosis model with tPA; assay type: in vivo; conditions: dog carotid
Description: Compounds useful in the method of the present invention are useful for the prevention of reocclusion as an adjunct to fibrinolytic therapy, as shown in the animal model tests described below. The effect of compound A in combination with tPA on the incidence of carotid artery reocclusion in dogs was assessed using a protocol as described by Mousa et al., Circulation 1994, 89:3-12.

[2] = tPA 0.5 mg locally, 1.5 mg IV bolus, compound A 0.1 mg/kg IV bolus + 0.4 mg/kg IV infusion 3 hr, mean ± SD

Compound	IC50 (αv /β3 receptor) [nM]	Relative Binding Affinity for αv /β3 Relative to GPIIb/IIIa (αv /β3 receptor)	IC50 (Platelet Aggregation) [nM]	IC50 (GPIIb/IIIa receptor) [nM]	Blood Flow, Basal ([1]; basal, tPA with or without compound A, mean ± SD) [cm/s]	Blood Flow, End ([1]; end, tPA with or without compound A) [cm/s]	Blood Flow, Reperfusion ([1]; reperfusion, tPA with or without compound A, mean ± SD) [cm/s]	Thrombus Weight (wet, mg) [1, 2] [mg]	Time to Occlusion [1, 2] [min]	Time to Reocclusion [1, 2] [min]	Time to Reperfusion [1, 2] [min]
N=C(N)NCCC[C@@H]1NC(=O)[C@H](CCCCN)NC(=O)c2cccc(c2)CNC(=O)[C@H](CC(=O)O)NC(=O)CNC1=O [Compound D, cyclo-(Lys-Arg-Gly-Asp-Mamb)] (cyclo(RGD[3Amb]K))	1.9	189	23000	359							
CC(C)C[C@@H]1NC(=O)c2cccc(c2)CNC(=O)[C@H](CC(=O)O)NC(=O)CNC(=O)[C@H](CCCNC(=N)N)NC1=O [Compound E, cyclo-(Leu-Arg-Gly-Asp-Mamb)] (cyclo(RGD[3Amb]L))	1.4	307	41000	430							
tPA: tissue plasminogen activator, thrombolytic agent					30 ± 2.5	0	24.2 ± 8	36.2 ± 19.4	80 ± 25	23 ± 10	15 ± 10
